{"source": "paper PMC9863409", "about": "“Combining the In Silico and In Vitro Assays to Identify Strobilanthes cusia Kuntze Bioactives against Penicillin-Resistant Streptococcus pneumoniae” (Pharmaceuticals, 2023)", "key": {"[1]": {"tested_on": "T1, Streptococcus pneumoniae PRSP F3983", "T1 construct": "F3983 (penicillin-resistant)", "experiment": "microbe, parasite or virus in culture", "design": "MIC test of isolated compounds on penicillin-resistant Streptococcus pneumoniae F3983", "source_text": "2.4.2. MIC Tests for the Isolated 23 Chemical Compounds on the PRSP F3983 The following supporting information can be downloaded at: https://www.mdpi.com/article/10.3390/ph16010105/s1; Table S1: Proteome_data sheet; Table S2: UPLC-UV-ESI-Q-TOF/MS analysis of S. cusia leaves; Table S3: NMR of 23 isolated compounds and their MICs against PRSP [69, 70, 71, 72, 73, 74, 75, 76, 77, 78, 79, 80, 81, 82, 83, 84, 85, 86, 87, 88, 89, 90, 91]; Table S4: Reverse-docking_active-pockets; Table S5: Reverse-docking_results_Tryptanthrin; Table S6: LMW-Kinetics-affinity_Tryptanthrin; Table S7: Primers and sequences of bgaA, StrH, SP_2141 and SP_2146 of F3983; Table S8: A scheme of Preparation of Isolated Compounds from S. cusia leaves"}, "[2]": {"target": "T2, SP_2141 (beta-Hexosaminidase) (Streptococcus pneumoniae, UniProt A0A0H2US73)", "T2 construct": "recombinant from PRSP F3983 genomic DNA, pET-28a (+) with N-terminal 6 × His tag", "T2 sequence (A0A0H2US73 entry or part of it)": "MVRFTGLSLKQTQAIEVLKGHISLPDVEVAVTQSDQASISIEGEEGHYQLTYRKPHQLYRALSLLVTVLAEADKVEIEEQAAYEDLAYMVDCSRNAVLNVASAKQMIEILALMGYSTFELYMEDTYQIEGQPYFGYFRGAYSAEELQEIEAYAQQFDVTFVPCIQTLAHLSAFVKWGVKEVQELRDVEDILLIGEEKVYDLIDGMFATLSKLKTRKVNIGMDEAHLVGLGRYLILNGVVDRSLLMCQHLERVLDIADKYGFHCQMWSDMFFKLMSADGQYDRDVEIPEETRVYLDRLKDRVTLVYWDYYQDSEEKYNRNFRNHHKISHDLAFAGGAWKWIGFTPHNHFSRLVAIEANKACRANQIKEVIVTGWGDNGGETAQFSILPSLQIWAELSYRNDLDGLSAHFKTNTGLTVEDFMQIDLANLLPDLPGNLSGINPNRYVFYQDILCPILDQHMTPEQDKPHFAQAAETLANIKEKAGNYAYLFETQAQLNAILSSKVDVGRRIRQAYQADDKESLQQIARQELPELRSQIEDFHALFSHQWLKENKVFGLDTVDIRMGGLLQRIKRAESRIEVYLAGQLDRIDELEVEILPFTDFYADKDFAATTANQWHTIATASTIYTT", "experiment": "SPR (Biacore 8K, CM5 chip, immobilized protein, steady-state affinity)", "assay_type": "binding"}, "[3]": {"target": "T3, SP_2146 (alpha-fucosidase) (Streptococcus pneumoniae, UniProt A0A0H2US78)", "T3 construct": "recombinant from PRSP F3983 genomic DNA, pET-28a (+) with N-terminal 6 × His tag", "T3 sequence (A0A0H2US78 entry or part of it)": "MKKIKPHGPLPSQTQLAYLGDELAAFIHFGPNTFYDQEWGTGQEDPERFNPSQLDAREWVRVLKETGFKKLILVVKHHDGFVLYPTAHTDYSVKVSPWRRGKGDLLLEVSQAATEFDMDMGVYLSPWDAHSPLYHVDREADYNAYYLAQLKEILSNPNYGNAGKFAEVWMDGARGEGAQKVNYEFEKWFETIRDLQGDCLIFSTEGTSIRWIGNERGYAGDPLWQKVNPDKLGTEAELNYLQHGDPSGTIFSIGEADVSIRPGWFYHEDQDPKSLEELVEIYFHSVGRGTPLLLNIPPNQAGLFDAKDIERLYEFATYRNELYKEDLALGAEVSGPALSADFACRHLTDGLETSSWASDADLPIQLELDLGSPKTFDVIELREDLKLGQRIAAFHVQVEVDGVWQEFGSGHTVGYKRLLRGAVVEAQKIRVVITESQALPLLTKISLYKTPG", "experiment": "SPR (Biacore 8K, CM5 chip, immobilized protein, steady-state affinity)", "assay_type": "binding"}, "[4]": {"target": "StrH (exo-beta-D-N-acetylglucosaminidase) (Streptococcus pneumoniae, UniProt P49610)", "sequence (P49610 626-1064)": "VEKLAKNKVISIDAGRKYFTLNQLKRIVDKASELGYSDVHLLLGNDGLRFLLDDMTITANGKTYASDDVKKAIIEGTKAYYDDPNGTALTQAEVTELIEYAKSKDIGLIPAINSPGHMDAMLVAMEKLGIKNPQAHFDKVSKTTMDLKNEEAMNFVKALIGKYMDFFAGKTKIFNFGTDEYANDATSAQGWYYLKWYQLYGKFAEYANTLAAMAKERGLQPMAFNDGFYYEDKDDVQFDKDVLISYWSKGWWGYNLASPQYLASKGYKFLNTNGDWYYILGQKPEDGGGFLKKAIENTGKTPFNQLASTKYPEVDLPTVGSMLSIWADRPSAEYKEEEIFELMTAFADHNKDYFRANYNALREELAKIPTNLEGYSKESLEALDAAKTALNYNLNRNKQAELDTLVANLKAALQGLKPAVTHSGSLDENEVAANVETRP", "experiment": "SPR (Biacore 8K, CM5 chip, immobilized protein, steady-state affinity)", "assay_type": "binding"}}}
{"molecule": "NC(=O)c1cccnc1", "note": "[compound 21, Nicotinamide]", "values": [{"measurement": "MIC", "setting": "[1]", "value": "> 800", "unit": "µg/mL"}]}
{"molecule": "O=C1c2ccccc2-n2c1nc1ccccc1c2=O", "note": "[Tryptanthrin, Indolo(2,1-b)quinazoline-6,12-dione]", "values": [{"measurement": "Kd", "setting": "[2]", "value": 6.43, "unit": "µM"}, {"measurement": "Kd", "setting": "[3]", "value": 8.82, "unit": "µM"}, {"measurement": "Kd", "setting": "[4]", "value": 7.16, "unit": "µM"}]}
{"molecule": "O=C(O)c1ccc(C(=O)O)[nH]1", "note": "[compound 5, 1H-pyrrole-2,5-diacarboxylic acid]", "values": [{"measurement": "MIC", "setting": "[1]", "value": 200, "unit": "µg/mL"}]}
{"molecule": "O=C1Nc2ccccc2OC1O", "note": "(stereo not shown) [compound 16, 2-hydroxy-(2H)-1,4-benzoxazin-3(4H)-one]", "values": [{"measurement": "MIC", "setting": "[1]", "value": "> 800", "unit": "µg/mL"}]}
{"molecule": "CC(=O)/C=C/[C@H]1C(C)=C[C@H](O)CC1(C)C", "note": "[compound 3, (3R,6R,7E)-3-hydroxy-4,7-megastigmadien-9-one]", "values": [{"measurement": "MIC", "setting": "[1]", "value": 400, "unit": "µg/mL"}]}
{"molecule": "COc1c(O)cc2oc(-c3ccc(O)cc3)cc(=O)c2c1O", "note": "[compound 15, hispidulin]", "values": [{"measurement": "MIC", "setting": "[1]", "value": 200, "unit": "µg/mL"}]}
{"molecule": "CC(C)COC(=O)c1ccccc1C(=O)OCC(C)C", "note": "[compound 7, phthalic acid isodibutyl ester]", "values": [{"measurement": "MIC", "setting": "[1]", "value": "> 800", "unit": "µg/mL"}]}
{"molecule": "CC(O)C(=O)Nc1ccccc1O", "note": "(stereo not shown) [compound 17, 2-hydroxy-N-(2-hydroxyphenyl)propionamide]", "values": [{"measurement": "MIC", "setting": "[1]", "value": "> 800", "unit": "µg/mL"}]}
{"molecule": "CC1(C)C[C@H](O)C[C@@]2(C)OC(=O)C=C12", "note": "[compound 12, Calendin]", "values": [{"measurement": "MIC", "setting": "[1]", "value": "> 800", "unit": "µg/mL"}]}
{"molecule": "O=Cc1c[nH]c2ccccc12", "note": "[compound 14, 1H-indole-3-carboxadehyde]", "values": [{"measurement": "MIC", "setting": "[1]", "value": "> 800", "unit": "µg/mL"}]}
{"molecule": "CCCCCCCC/C=C\\CCCCCCCC(N)=O", "note": "[compound 23, 9(Z)-octadece-nameid]", "values": [{"measurement": "MIC", "setting": "[1]", "value": "> 800", "unit": "µg/mL"}]}
{"molecule": "COc1cc(C(=O)O)ccc1O", "note": "[compound 10, 4-hydroxy-5-methoxy-benzoic acid]", "values": [{"measurement": "MIC", "setting": "[1]", "value": "> 800", "unit": "µg/mL"}]}
{"molecule": "CC(=O)C=CC1=C(C)CC(O)CC1(C)C", "note": "(single isomer, unassigned; (-)) [compound 9, (-)-3-hydroxy-β-ionone]", "values": [{"measurement": "MIC", "setting": "[1]", "value": "> 800", "unit": "µg/mL"}]}
{"molecule": "CCCCC(CC)COC(=O)c1ccccc1C(=O)OCC(CC)CCCC", "note": "(stereo not shown) [compound 6, bis(2-ethylhexyl) benzene-1,2-dicarboxylate]", "values": [{"measurement": "MIC", "setting": "[1]", "value": "> 800", "unit": "µg/mL"}]}
{"molecule": "COC(=O)c1ccccc1NC(=O)c1c[nH]c2ccccc12", "note": "[compound 8, cephalandole B]", "values": [{"measurement": "MIC", "setting": "[1]", "value": "> 800", "unit": "µg/mL"}]}
{"molecule": "O=c1c2ccccc2nc2n1CCC2", "note": "[compound 20, deoxyvasicinone]", "values": [{"measurement": "MIC", "setting": "[1]", "value": "> 800", "unit": "µg/mL"}]}
{"molecule": "CC(=O)C=CC12OC1(C)CC(O)CC2(C)C", "note": "(stereo not drawn) [compound 11, 3β-hydroxy-5α,6α-epoxy-7-megastigmen-9-one]", "values": [{"measurement": "MIC", "setting": "[1]", "value": 400, "unit": "µg/mL"}]}
{"molecule": "CC(=O)c1ccc(O)cc1", "note": "[compound 19, p-hydroxyacetophenone]", "values": [{"measurement": "MIC", "setting": "[1]", "value": 200, "unit": "µg/mL"}]}
{"molecule": "O=C1Cc2ccccc2N1", "note": "[compound 4, 1,3-dihydro-2H-indol-2-one]", "values": [{"measurement": "MIC", "setting": "[1]", "value": 400, "unit": "µg/mL"}]}
{"molecule": "O=c1c2ccccc2ncn1-c1ccccc1O", "note": "[compound 13, 3-(2'-hydroxyphenyl)-4(3H)-quinazolinone]", "values": [{"measurement": "MIC", "setting": "[1]", "value": 400, "unit": "µg/mL"}]}
